How the values were obtained:
Type in all cases: binding
Design in all cases: KINOMEscan: ABL1(F317L)-phosphorylated / KINOMEscan: ABL1(H396P)-nonphosphorylated / KINOMEscan: ABL1(H396P)-phosphorylated / KINOMEscan: ABL1(M351T)-phosphorylated / KINOMEscan: ABL1(T315I)-phosphorylated / KINOMEscan: ABL1-nonphosphorylated / KINOMEscan: ABL1-phosphorylated / KINOMEscan: ACVR2A / KINOMEscan: ACVR2B / KINOMEscan: ADCK3 / KINOMEscan: ADCK4 / KINOMEscan: AKT1 / KINOMEscan: AKT3 / KINOMEscan: ALK / KINOMEscan: ARK5 / KINOMEscan: AURKA / KINOMEscan: AURKC / KINOMEscan: BIKE / KINOMEscan: BMPR1A / KINOMEscan: BMPR1B / KINOMEscan: BMX / KINOMEscan: BRK / KINOMEscan: BRSK1 / KINOMEscan: BRSK2 / KINOMEscan: CAMK1 / KINOMEscan: CAMK1D / KINOMEscan: CAMK1G / KINOMEscan: CAMK2A / KINOMEscan: CAMK2B / KINOMEscan: AAK1 / KINOMEscan: CAMK2D / KINOMEscan: CAMK2G / KINOMEscan: ABL1(F317I)-nonphosphorylated / KINOMEscan: ABL1(F317I)-phosphorylated / KINOMEscan: ABL1(F317L)-nonphosphorylated: unit: % Ctrl
panel of 442 kinases [1] = molecular target: T1, panel of 442 kinases (Homo sapiens, UniProt P07947); details: kinase YES; compound concentration 10 µM
T1 construct: purchased KINOMEscan
Excerpt: (§1) We assessed the selectivity of members of this scaffold using the KINOMEscan methodology across a near comprehensive panel of 442 kinases [[18,27]].

panel of 442 kinases [2] = molecular target: T2, panel of 442 kinases (Homo sapiens, UniProt Q9UPZ9); details: Compound Concentration 10 µM
T2 construct: purchased KINOMEscan
T2 sequence (Q9UPZ9 1-632): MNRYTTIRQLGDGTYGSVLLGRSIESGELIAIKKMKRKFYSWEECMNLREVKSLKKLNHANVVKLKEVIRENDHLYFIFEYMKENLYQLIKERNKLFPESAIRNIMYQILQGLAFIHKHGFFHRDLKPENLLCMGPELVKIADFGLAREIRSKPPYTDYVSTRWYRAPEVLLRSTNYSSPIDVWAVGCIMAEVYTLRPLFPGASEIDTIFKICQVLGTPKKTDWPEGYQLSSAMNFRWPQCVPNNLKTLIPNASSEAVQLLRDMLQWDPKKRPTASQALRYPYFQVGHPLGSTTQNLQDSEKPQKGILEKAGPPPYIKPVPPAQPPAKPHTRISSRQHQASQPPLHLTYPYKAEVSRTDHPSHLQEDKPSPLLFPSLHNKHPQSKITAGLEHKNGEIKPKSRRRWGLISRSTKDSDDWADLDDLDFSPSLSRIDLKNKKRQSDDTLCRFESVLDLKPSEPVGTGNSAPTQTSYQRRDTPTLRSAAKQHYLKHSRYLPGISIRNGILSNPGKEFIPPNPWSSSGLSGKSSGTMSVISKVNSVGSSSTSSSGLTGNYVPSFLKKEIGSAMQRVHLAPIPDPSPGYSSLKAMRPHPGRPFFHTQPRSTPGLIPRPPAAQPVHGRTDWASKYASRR
Excerpt: as §1

panel of 442 kinases [3] = molecular target: T3, panel of 442 kinases (Homo sapiens, UniProt Q8IU85); details: Compound Concentration 10 µM
T3 construct: purchased KINOMEscan
Excerpt: as §1

T1 sequence (P07947 whole entry): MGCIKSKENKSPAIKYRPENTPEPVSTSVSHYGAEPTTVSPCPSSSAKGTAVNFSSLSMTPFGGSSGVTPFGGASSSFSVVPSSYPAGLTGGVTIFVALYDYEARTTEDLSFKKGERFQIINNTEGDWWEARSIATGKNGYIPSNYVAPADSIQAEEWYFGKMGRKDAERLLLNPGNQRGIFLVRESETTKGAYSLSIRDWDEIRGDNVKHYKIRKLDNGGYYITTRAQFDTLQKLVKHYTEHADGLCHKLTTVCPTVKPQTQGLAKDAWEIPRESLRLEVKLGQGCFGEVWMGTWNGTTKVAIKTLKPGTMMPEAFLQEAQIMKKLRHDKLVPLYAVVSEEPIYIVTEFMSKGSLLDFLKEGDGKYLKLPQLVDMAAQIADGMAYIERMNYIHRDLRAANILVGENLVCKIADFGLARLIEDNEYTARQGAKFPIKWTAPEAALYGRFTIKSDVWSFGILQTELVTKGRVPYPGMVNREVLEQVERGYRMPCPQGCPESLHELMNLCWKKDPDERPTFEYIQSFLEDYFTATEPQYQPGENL
T3 sequence (Q8IU85 whole entry): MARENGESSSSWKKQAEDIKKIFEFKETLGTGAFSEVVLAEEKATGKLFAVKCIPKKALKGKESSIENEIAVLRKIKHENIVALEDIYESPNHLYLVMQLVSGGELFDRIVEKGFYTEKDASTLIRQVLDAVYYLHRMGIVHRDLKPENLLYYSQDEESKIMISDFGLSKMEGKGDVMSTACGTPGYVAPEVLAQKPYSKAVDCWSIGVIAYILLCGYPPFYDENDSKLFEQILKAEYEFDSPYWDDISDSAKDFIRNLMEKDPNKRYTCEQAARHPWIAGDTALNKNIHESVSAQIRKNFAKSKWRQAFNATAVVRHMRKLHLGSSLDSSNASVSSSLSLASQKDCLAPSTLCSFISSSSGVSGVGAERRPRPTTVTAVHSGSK

## COc1cc(C(=O)N2CCC(N3CCN(C)CC3)CC2)ccc1Nc1ncc2c(n1)N(C)c1ccccc1C(=O)N2C [15 (LRRK2-IN-1)]
Panel of 442 kinases [1]
  % Ctrl, YES: 100 % Ctrl
Panel of 442 kinases [2]
  KINOMEscan: ICK: 90
Panel of 442 kinases [3]
  KINOMEscan: CAMK1D: 69

## COc1cc(C(=O)N2CCC(N3CCN(C)CC3)CC2)ccc1Nc1ncc2c(n1)N1CCc3cccc(c31)C(=O)N2C [Compound 24]
Panel of 442 kinases [1]
  % Ctrl, YES: 100 % Ctrl

## COc1cc(C(=O)N2CCC(N3CCN(C)CC3)CC2)ccc1Nc1ncc2c(n1)N(C1CCCC1)c1ccccc1C(=O)N2C [Compound 25, 11-cyclopentyl-2-((2-methoxy-4-(4-(4-methylpiperazin-1-yl)piperidine-1-carbonyl)phenyl)amino)-5-methyl-5H-benzo[e]pyrimido[5,4-b][1,4]diazepin-6(11H)-one]
Panel of 442 kinases [1]
  % Ctrl, YES: 89 % Ctrl
Panel of 442 kinases [2]
  KINOMEscan: ICK: 100
Panel of 442 kinases [3]
  KINOMEscan: CAMK1D: 77

## CCOc1cc(C(=O)N2CCC(N3CCN(C)CC3)CC2)ccc1Nc1ncc2c(n1)N(C1CCCC1)c1ccccc1C(=O)N2C [Compound 26]
Panel of 442 kinases [1]
  % Ctrl, YES: 100 % Ctrl
Panel of 442 kinases [2]
  KINOMEscan: ICK: 100
Panel of 442 kinases [3]
  KINOMEscan: CAMK1D: 61

Reference: publication PMC3914206
